The values below come from patent publication US6586630B1, “Ethylamine derivatives” (Chugai Seiyaku Kabushiki Kaisha, priority 1998, dated 2003).

Assay [1] deals with motilin-induced contraction of longitudinal muscle in the duodenum. Nature of the assay: Contraction suppressing test: motilin-induced contraction of a specimen of longitudinal muscle in the duodenum extracted from a rabbit. Type of assay: cell-based. The following applies: rabbit duodenum longitudinal muscle in organ bath, Krebs solution 28° C.; effect on dose-dependent contraction by motilin. Here is the method:
Action on the Contraction of a Specimen of Longitudinal Muscle in the Duodenum Extracted from a Rabbit
The action on the motilin-induced contraction of a specimen of longitudinal muscle in the duodenum extracted from a rabbit was investigated by the following method. A duodenum specimen extracted from a slaughtered rabbit (5×15 mm) was suspended in an organ bath (10 ml) such that the longitudinal muscle would run vertically; the bath was filled with a Krebs solution kept at 28° C. A mixed gas (95% O2 and 5% CO2) was continuously bubbled into the Krebs solution and the contraction of the duodenum specimen was recorded isotonically (with a 1-g load) via an isotonic transducer (ME-3407, ME Commercial, Tokyo, Japan). The degree of contraction was expressed in relative values, with the contraction by acetylcholine at a dose of 10^−4 M being taken as 100%. The activity of the compound was calculated as pA2 value indicating its effect on the dose-dependent muscle contraction by the motilin put into the organ bath.

In a further assay the target is T1, Motilin receptor (Oryctolagus cuniculus, UniProt G1T803).
T1 construct: had the mucous membrane separated and homogenized in 50 mM Tris buffer to prepare a protein sample; from tissue; host or cells: rabbit duodenum with the mucous membrane separated, homogenate
T1 sequence (G1T803 1-400): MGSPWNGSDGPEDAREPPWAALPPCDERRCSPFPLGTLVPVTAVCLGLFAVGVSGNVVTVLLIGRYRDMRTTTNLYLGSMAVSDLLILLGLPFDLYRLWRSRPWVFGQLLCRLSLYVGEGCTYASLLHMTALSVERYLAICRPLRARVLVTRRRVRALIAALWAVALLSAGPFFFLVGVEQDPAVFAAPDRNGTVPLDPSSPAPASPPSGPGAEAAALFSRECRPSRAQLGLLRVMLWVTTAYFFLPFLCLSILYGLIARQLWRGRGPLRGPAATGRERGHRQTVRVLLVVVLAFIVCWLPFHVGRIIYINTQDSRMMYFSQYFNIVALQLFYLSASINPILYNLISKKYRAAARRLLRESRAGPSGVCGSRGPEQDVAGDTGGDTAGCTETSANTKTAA
As to the kind of experiment: Motilin receptor binding test (125I motilin, rabbit duodenum protein sample). Particulars: 125I motilin 25 pM, concentration reducing specific binding by 50%. The method, then:
Motilin Receptor Binding Test
A motilin receptor binding test was conducted in the following manner [Vantrappen et al., Regul. Peptides, 15, 143 (1986)]. The duodenum was extracted from a slaughtered rabbit, had the mucous membrane separated and homogenized in 50 mM Tris buffer to prepare a protein sample. The protein sample was incubated together with ^125I motilin 25 pM and thereafter the radioactivity bound to the protein was measured. Specific binding was defined as the difference between the radioactivity in the case of no adding and that in the case of adding a great excess amount of motilin (10^−7 M). The activity of the compound was expressed by IC50 (in nM), as the concentration sufficient to reduce the specific binding by 50%.

As a reminder, the IC50 is the concentration needed to halve the response being measured. A lower IC50 goes with greater potency in that assay. For the molecule `CC(C)[C@@H](C(=O)NC(Cc1ccc(F)c(C(C)(C)C)c1)C(N)=O)N(C)C(=O)[C@@H](N)Cc1ccccc1` (single isomer, unassigned) [7 (A), Phe-N-Me-Val-Phe(3-tBu-4-F)—NH2], the “Contraction suppressing test, pA2” value in assay [1] is on record as 7.58. The same molecule had a half-maximal inhibitory concentration (IC50) at Motilin receptor of 3.5 nM.
